Data taken from US11286243B2 (GLOBAL BLOOD THERAPEUTICS, INC., priority 2018, dated 2022).

Molecular target: T1, human ferroportin (Homo sapiens, UniProt Q9NP59)
T1 construct: luciferase reporter (probably NanoLuc: read with the Nano-Glo Luciferase Assay System); expressed in transfected cells; host or cells: CHO cells, stably transfected, doxycycline-inducible expression
T1 sequence (Q9NP59 1-571): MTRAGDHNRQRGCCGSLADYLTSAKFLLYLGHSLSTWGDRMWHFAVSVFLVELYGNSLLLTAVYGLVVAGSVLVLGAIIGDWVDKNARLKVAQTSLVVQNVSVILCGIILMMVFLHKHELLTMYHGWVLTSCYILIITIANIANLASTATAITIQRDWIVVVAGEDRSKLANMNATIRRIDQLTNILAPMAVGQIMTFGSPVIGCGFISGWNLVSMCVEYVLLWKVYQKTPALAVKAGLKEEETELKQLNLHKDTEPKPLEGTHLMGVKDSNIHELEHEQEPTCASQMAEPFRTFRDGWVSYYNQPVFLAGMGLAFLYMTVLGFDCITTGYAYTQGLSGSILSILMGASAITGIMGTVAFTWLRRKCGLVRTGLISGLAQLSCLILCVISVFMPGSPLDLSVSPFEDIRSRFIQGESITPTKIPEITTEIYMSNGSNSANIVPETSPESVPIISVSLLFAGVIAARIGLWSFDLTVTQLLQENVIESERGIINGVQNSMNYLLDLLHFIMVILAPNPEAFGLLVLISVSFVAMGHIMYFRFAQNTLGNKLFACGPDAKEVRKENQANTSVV
Assay: In-vitro ferroportin internalization assay (luciferase reporter)
Type: cell-based
Settings: average pEC50; stably-transfected CHO cell line expressing human ferroportin tagged to a luciferase reporter; 6 h incubation with test compounds
Method: The protocol for this assay is generally as described in WO2018/128828, incorporated herein by reference in its entirety. Functional internalization of ferroportin protein was measured using a stably-transfected CHO cell line expressing the human ferroportin tagged to a luciferase reporter. Cells were plated for 24 h in the presence of ferric ammonium citrate (FAC). Ferroportin protein expression was induced with doxycycline for 24 h. The next day, the compounds were added. Test compounds were dissolved in DMSO. Cells were incubated with the test compounds for 6 h, and subsequently luciferase activity was measured using the Nano-Glo Luciferase Assay System and Glomax (Promega, Madison, Wis.).
The average pEC50 was determined for the test compounds.

| pEC50 | SMILES |
| --- | --- |
| 5.1 | Oc1cccc(CNCCc2nc3c(NCc4ncccc4F)nccc3o2)c1 [Compound 54, 3-({[2-(4-{[(3-fluoropyridin-2-yl)methyl]amino}-[1,3]oxazolo[4,5-c]pyridin-2-yl)ethyl]amino}methyl)phenol] |
| 7.6 | Cc1nc(CCNCCc2nc3c(NCc4ncccc4F)ncnc3s2)[nH]c1C [Compound 55, 2-(2-{[2-(4,5-dimethyl-1H-imidazol-2-yl)ethyl]amino}ethyl)-N-[(3-fluoropyridin-2-yl)methyl]-[1,3]thiazolo[5,4-d]pyrimidin-7-amine] |
| 6.7 | Cc1cnc(CCNCCc2nc3c(NCc4ncccc4F)nccc3o2)[nH]1 [Compound 56, N-[(3-fluoropyridin-2-yl)methyl]-2-(2-{[2-(5-methyl-1H-imidazol-2-yl)ethyl]amino}ethyl)-[1,3]oxazolo[4,5-c]pyridin-4-amine] |
| 5.4 | Fc1cccnc1CNc1nccc2oc(CCNCCc3ncc(C(F)(F)F)[nH]3)nc12 [Compound 57, N-[(3-fluoropyridin-2-yl)methyl]-2-[2-({2-[5-(trifluoromethyl)-1H-imidazol-2-yl]ethyl}amino)ethyl]-[1,3]oxazolo[4,5-c]pyridin-4-amine] |
| 5.7 | Fc1cccnc1CNc1nccc2oc(CCNCCc3ncc[nH]3)nc12 [Compound 58] |
| 6.2 | Oc1cc2oc(CCNCCc3nc4ccccc4[nH]3)nc2c(NCc2ncccc2F)n1 [Compound 59, 2-(2-{[2-(1H-1,3-benzodiazol-2-yl)ethyl]amino}ethyl)-4-{[(3-fluoropyridin-2-yl)methyl]amino}-[1,3]oxazolo[4,5-c]pyridin-6-ol] |
| 5.8 | Fc1cccnc1CNc1ncnc2sc(CCNCCc3ncc(-c4cccnc4)[nH]3)nc12 [Compound 60, N-[(3-fluoropyridin-2-yl)methyl]-2-[2-({2-[5-(pyridin-3-yl)-1H-imidazol-2-yl]ethyl}amino)ethyl]-[1,3]thiazolo[5,4-d]pyrimidin-7-amine] |
| 6.9 | CC(CNCCc1nc2c(NCc3ncccc3F)nccc2o1)c1nc2ccccc2[nH]1 (stereo not shown) [Compound 61, 2-(2-{[2-(1H-1,3-benzodiazol-2-yl)propyl]amino}ethyl)-N-[(3-fluoropyridin-2-yl)methyl]-[1,3]oxazolo[4,5-c]pyridin-4-amine] |
| 7.7 | Fc1cccnc1CNc1nccc2oc(CCNCCc3ncc(Cc4ccccc4)[nH]3)nc12 [Compound 62] |
| 5.1 | Fc1cccnc1CNc1nccc2oc(CCNCCc3ncc(CC4CC4)[nH]3)nc12 [Compound 63, 2-[2-({2-[5-(cyclopropylmethyl)-1H-imidazol-2-yl]ethyl}amino)ethyl]-N-[(3-fluoropyridin-2-yl)methyl]-[1,3]oxazolo[4,5-c]pyridin-4-amine] |
| 7 | Cc1nc(CCNCCc2nc3c(NCc4ncccc4F)ncnc3s2)[nH]c1-c1ccccc1 [Compound 64, N-[(3-fluoropyridin-2-yl)methyl]-2-(2-{[2-(4-methyl-5-phenyl-1H-imidazol-2-yl)ethyl]amino}ethyl)-[1,3]thiazolo[5,4-d]pyrimidin-7-amine] |
| 6.2 | Fc1cccnc1CNc1ncnc2sc(CCNCCc3ncc(-c4ccccn4)[nH]3)nc12 [Compound 65, N-[(3-fluoropyridin-2-yl)methyl]-2-[2-({2-[5-(pyridin-2-yl)-1H-imidazol-2-yl]ethyl}amino)ethyl]-[1,3]thiazolo[5,4-d]pyrimidin-7-amine] |
| 6.2 | Fc1cccc(-c2cnc(CCNCCc3nc4c(NCc5ncccc5F)ncnc4s3)[nH]2)c1 [Compound 67, 2-[2-({2-[5-(3-fluorophenyl)-1H-imidazol-2-yl]ethyl}amino)ethyl]-N-[(3-fluoropyridin-2-yl)methyl]-[1,3]thiazolo[5,4-d]pyrimidin-7-amine] |
| 5.8 | Fc1ccc(-c2cnc(CCNCCc3nc4c(NCc5ncccc5F)ncnc4s3)[nH]2)cc1 [Compound 68, 2-[2-({2-[5-(4-fluorophenyl)-1H-imidazol-2-yl]ethyl}amino)ethyl]-N-[(3-fluoropyridin-2-yl)methyl]-[1,3]thiazolo[5,4-d]pyrimidin-7-amine] |
| 5.2 | Cc1ncc(-c2cc(CNCCc3nc4c(NCc5ncccc5F)ncnc4s3)c(Cl)s2)[nH]1 [Compound 69, 2-[2-({[2-chloro-5-(2-methyl-1H-imidazol-5-yl)thiophen-3-yl]methyl}amino)ethyl]-N-[(3-fluoropyridin-2-yl)methyl]-[1,3]thiazolo[5,4-d]pyrimidin-7-amine] |
| 5.6 | Cc1nc(-c2ccc(Cl)s2)c(CNCCc2nc3c(NCc4ncccc4F)ncnc3s2)[nH]1 [Compound 70, 2-[2-({[4-(5-chlorothiophen-2-yl)-2-methyl-1H-imidazol-5-yl]methyl}amino)ethyl]-N-[(3-fluoropyridin-2-yl)methyl]-[1,3]thiazolo[5,4-d]pyrimidin-7-amine] |
| 5.2 | Fc1cccnc1CNc1ncnc2sc(CC3CCCC(Cc4nc5ccccc5[nH]4)N3)nc12 (stereo not shown) [Compound 71, 2-({6-[(1H-1,3-benzodiazol-2-yl)methyl]piperidin-2-yl}methyl)-N-[(3-fluoropyridin-2-yl)methyl]-[1,3]thiazolo[5,4-d]pyrimidin-7-amine] |
| 6.4 | Fc1cccnc1CNc1ncnc2sc(CCNCCc3ncc(-c4ccc(Cl)s4)[nH]3)nc12 [Compound 72, 2-[2-({2-[5-(5-chlorothiophen-2-yl)-1H-imidazol-2-yl]ethyl}amino)ethyl]-N-[(3-fluoropyridin-2-yl)methyl]-[1,3]thiazolo[5,4-d]pyrimidin-7-amine] |
| 7.6 | Cc1nc(CCNCCc2nc3c(NCc4ncccc4F)nccc3s2)[nH]c1C [Compound 73, 2-(2-{[2-(4,5-dimethyl-1H-imidazol-2-yl)ethyl]amino}ethyl)-N-[(3-fluoropyridin-2-yl)methyl]-[1,3]thiazolo[4,5-c]pyridin-4-amine] |
| 6.9 | Fc1cccnc1CNc1nccc2oc([C@H](F)CNCCc3nc4ccccc4[nH]3)nc12 [Compound 74, 2-[(1R)-2-{[2-(1H-1,3-benzodiazol-2-yl)ethyl]amino}-1-fluoroethyl]-N-[(3-fluoropyridin-2-yl)methyl]-[1,3]oxazolo[4,5-c]pyridin-4-amine] |
| 7.1 | Fc1cccnc1CNc1nccc2oc([C@@H](F)CNCCc3nc4ccccc4[nH]3)nc12 [Compound 75, 2-[(1 S)-2-{[2-(1H-1,3-benzodiazol-2-yl)ethyl]amino}-1-fluoroethyl]-N-[(3-fluoropyridin-2-yl)methyl]-[1,3]oxazolo[4,5-c]pyridin-4-amine] |
| 8.1 | Cc1nc(CCNCCc2nc3c(NCc4ncccc4F)nc(O)nc3s2)[nH]c1C [Compound 76, 2-(2-{[2-(4,5-dimethyl-1H-imidazol-2-yl)ethyl]amino}ethyl)-7-{[(3-fluoropyridin-2-yl)methyl]amino}-[1,3]thiazolo[5,4-d]pyrimidin-5-ol] |
| 7.8 | Fc1cccnc1CNc1ncnc2sc([C@H](F)CNCCc3nc4ccccc4[nH]3)nc12 [Compound 77, 2-[(1R)-2-{[2-(1H-1,3-benzodiazol-2-yl)ethyl]amino}-1-fluoroethyl]-N-[(3-fluoropyridin-2-yl)methyl]-[1,3]thiazolo[5,4-d]pyrimidin-7-amine] |
| <5 | Cc1nc(Cc2ccccc2)c(CNCCc2nc3c(NCc4ncccc4F)nccc3o2)[nH]1 [Compound 78, 2-(2-{[(4-benzyl-2-methyl-1H-imidazol-5-yl)methyl]amino}ethyl)-N-[(3-fluoropyridin-2-yl)methyl]-[1,3]oxazolo[4,5-c]pyridin-4-amine] |
| <5 | Fc1cccnc1CNc1ncnc2sc(CCNCCc3ncc(-c4ccncc4)[nH]3)nc12 [Compound 79, N-[(3-fluoropyridin-2-yl)methyl]-2-[2-({2-[5-(pyridin-4-yl)-1H-imidazol-2-yl]ethyl}amino)ethyl]-[1,3]thiazolo[5,4-d]pyrimidin-7-amine] |
| <5 | O=C(NCc1ccc2[nH]c(CCNCCc3nc4c(NCc5ncccc5F)ncnc4s3)nc2c1)c1ccc2c(c1)C1(OC2=O)c2ccc(O)cc2Oc2cc(O)ccc21 [Compound 80] |
| 6.3 | Fc1cccnc1CNc1nccc2oc(C(F)(F)CNCCc3nc4ccccc4[nH]3)nc12 [Compound 81, 2-(2-{[2-(1H-1,3-benzodiazol-2-yl)ethyl]amino}-1,1-difluoroethyl)-N-[(3-fluoropyridin-2-yl)methyl]-[1,3]oxazolo[4,5-c]pyridin-4-amine] |
| 6.4 | Fc1cccnc1CNc1nccc2sc([C@H](F)CNCCc3nc4ccccc4[nH]3)nc12 [Compound 82, 2-[(1R)-2-{[2-(1H-1,3-benzodiazol-2-yl)ethyl]amino}-1-fluoroethyl]-N-[(3-fluoropyridin-2-yl)methyl]-[1,3]thiazolo[4,5-c]pyridin-4-amine] |
